The text below walks through data of ChEMBL document CHEMBL1201862, “PubChem BioAssay data set” (2004).

Some test systems named below: HT-29; HCT-116; U-251; M19-MEL; MOLT-4; SK-MEL-5; SNB-75; UACC-62; DLD-1; COLO 205; HOP-92; SF-295; CAKI-1; UO-31; UACC-257; IGROV-1; OVCAR-8; CCRF-CEM; SF-539; A498.
Holding throughout (experiment): NCI tumour cell line growth inhibition, 48 h

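Compound exposure: 48 hours, 5 concentrations, 96-well plates. GI50 marks 50% less growth.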 Activity calls are given as the source filed them. No stated cut-off is given here; in the data, active = GI50 up to about 1.1 µM and inactive = higher.

In the case of `COc1ccc(C2C(C(=O)O)=C(CO)Oc3cc4c(cc32)OCO4)cc1` (centres undefined), the GI50 in the experiment on HT-29 was > 100 µM (inactive); with HCT-116, > 100 µM (inactive); with U-251, > 100 µM (inactive); with M19-MEL, > 100 µM (inactive); with MOLT-4, > 10 µM (inactive); in the experiment with SK-MEL-5, > 100 µM (inactive). The GI50 with SNB-75 was 27.4 µM (inactive); in the experiment with UACC-62 it was > 100 µM (inactive); with DLD-1, > 100 µM (inactive); in the experiment on COLO 205, > 100 µM (inactive); with HOP-92, > 100 µM (inactive); in the experiment on SF-295, > 100 µM (inactive). The GI50 in the experiment with CAKI-1, with UO-31, in the experiment on UACC-257, in the experiment on IGROV-1 and in the experiment with OVCAR-8 was > 100 µM (inactive) each time.
As to `CCOC(=O)C(=CNC(Cc1c[nH]c2ccccc12)C(=O)OC)C(=O)OCC` (centres undefined), the GI50 in the experiment with CCRF-CEM, in the experiment with HT-29, in the experiment with U-251, with M19-MEL, in the experiment on SF-539 and with MOLT-4 was > 100 µM (inactive) in each case. For the same molecule, the GI50 with SK-MEL-5 was 86.3 µM (inactive); with SNB-75, > 100 µM (inactive); in the experiment on A498, > 100 µM (inactive); with UACC-62, 71.1 µM (inactive); in the experiment with DLD-1 it was > 100 µM (inactive); in the experiment with COLO 205 it was > 100 µM (inactive). Besides, the GI50 with HOP-92 was 16.6 µM (inactive); in the experiment with SF-295 it was > 100 µM (inactive); in the experiment with CAKI-1, > 100 µM (inactive); with UO-31 it was 74.6 µM (inactive); with IGROV-1, > 100 µM (inactive); with OVCAR-8, > 100 µM (inactive).
On to `C#CCOc1c(C(=O)OCC)c(=O)n(C)c2ccccc12`, for which the GI50 in the experiment with CCRF-CEM, in the experiment on HT-29, with U-251, in the experiment with M19-MEL, with SF-539 and in the experiment on MOLT-4 was > 100 µM (inactive) throughout. For the same molecule, the GI50 is > 100 µM (inactive) in the experiment with SK-MEL-5; 54.5 µM (inactive) with SNB-75; > 100 µM (inactive) in the experiment on A498; > 100 µM (inactive) with UACC-62; > 100 µM (inactive) with DLD-1; > 100 µM (inactive) in the experiment with COLO 205. The GI50 was 70 µM (inactive) in the experiment with HOP-92; > 100 µM (inactive) in the experiment on SF-295; > 100 µM (inactive) in the experiment on CAKI-1; > 100 µM (inactive) in the experiment with UO-31; > 100 µM (inactive) in the experiment with IGROV-1; > 100 µM (inactive) in the experiment with OVCAR-8.
On to `N=S(=O)(c1ccccc1)c1ccccc1`, for which the GI50 in the experiment with CCRF-CEM is 24.2 µM (inactive); with HT-29, > 10 µM (inactive); with HCT-116 it was > 100 µM (inactive); in the experiment on U-251, > 100 µM (inactive); with M19-MEL, > 100 µM (inactive); in the experiment on SF-539, > 100 µM (inactive). Also, the GI50 in the experiment with MOLT-4 was 22 µM (inactive); in the experiment with SK-MEL-5, > 100 µM (inactive); with SNB-75, > 100 µM (inactive); with A498 it was > 100 µM (inactive); in the experiment with UACC-62, > 100 µM (inactive); in the experiment with DLD-1, > 100 µM (inactive). The GI50 with COLO 205, in the experiment on SF-295, with CAKI-1, in the experiment on UO-31, in the experiment on UACC-257 and in the experiment with IGROV-1 was > 100 µM (inactive) each time. Moreover, the GI50 in the experiment with OVCAR-8 is > 100 µM (inactive).
For the molecule `NC(CCOCCP(=O)(O)O)C(=O)O` (centres undefined), the GI50 in the experiment on CCRF-CEM, in the experiment with HT-29, with HCT-116, with U-251, in the experiment with SF-539 and in the experiment with MOLT-4 was > 100 µM (inactive) in each case. Moreover, the GI50 in the experiment on SK-MEL-5 was > 100 µM (inactive); in the experiment with SNB-75, > 100 µM (inactive); in the experiment with UACC-62, 56.5 µM (inactive); in the experiment with COLO 205, > 100 µM (inactive); in the experiment on HOP-92 it was > 100 µM (inactive); with SF-295 it was > 100 µM (inactive). Also, the GI50 with CAKI-1, in the experiment with UO-31, in the experiment with UACC-257, in the experiment on IGROV-1 and in the experiment with OVCAR-8 was > 100 µM (inactive) each time.
Consider `Nc1nc(=O)[nH][nH]1`, for which the GI50 in the experiment on CCRF-CEM, in the experiment on HT-29, in the experiment with HCT-116, with U-251, in the experiment with M19-MEL and with SF-539 was > 100 µM (inactive) each time. Moreover, the GI50 with MOLT-4, in the experiment with SK-MEL-5, in the experiment on SNB-75, with A498, with UACC-62 and in the experiment on DLD-1 was > 100 µM (inactive) throughout. Besides, the GI50 in the experiment on COLO 205, in the experiment on HOP-92, with SF-295, with CAKI-1, in the experiment with UO-31 and in the experiment with UACC-257 was > 100 µM (inactive) each time. Also, the GI50 in the experiment with IGROV-1 and in the experiment with OVCAR-8 was > 100 µM (inactive) each time.
As to `O=C1NC(=O)C2(CCc3ccc(N(CCCl)CCCl)cc32)N1` (centres undefined), the GI50 is 1.41 µM (inactive) in the experiment on CCRF-CEM; 16.4 µM (inactive) in the experiment with HT-29; 14.1 µM (inactive) in the experiment with HCT-116; 6.78 µM (inactive) in the experiment with U-251; 14.1 µM (inactive) in the experiment on M19-MEL; 5.27 µM (inactive) with SF-539. The GI50 with MOLT-4 was 0.931 µM (active); with SK-MEL-5, 13.5 µM (inactive); in the experiment with SNB-75, 7.48 µM (inactive); with A498, 16.9 µM (inactive); in the experiment with UACC-62 it was 4.33 µM (inactive); with DLD-1, 19 µM (inactive). Also, the GI50 with COLO 205 was 12.3 µM (inactive); with HOP-92, 13.5 µM (inactive); in the experiment with SF-295, 7.5 µM (inactive); in the experiment with CAKI-1, 3.56 µM (inactive); in the experiment with UO-31 it was 11 µM (inactive); in the experiment with UACC-257, 16.4 µM (inactive). Further, the GI50 with IGROV-1 is 15.9 µM (inactive); in the experiment on OVCAR-8 it was 14.1 µM (inactive).
`CC1C(O)[C@@]2(OC[C@@]34C(=O)CC5(O)[C@H](CCC6Cc7nc8c(nc7C[C@]65C)CC5CC[C@@H]6C7=C[C@H]9O[C@@]%10(O[C@@](C)(CO)C[C@@H]%10O)C(C)[C@@]9(O)[C@]7(C)[C@@H](O)CC6[C@]5(C)C8)C3=CC[C@H]4C2C)OC1(C)C` (some centres undefined): the GI50 in the experiment on CCRF-CEM was < 0.000355 µM (active); in the experiment with HT-29, 0.000622 µM (active); in the experiment with HCT-116, 0.000776 µM (active); with U-251, < 0.000355 µM (active); in the experiment on M19-MEL it was 0.442 µM (active); in the experiment with SF-539 it was < 0.000355 µM (active). Moreover, the GI50 with MOLT-4 is < 0.000355 µM (active); in the experiment with SK-MEL-5, 0.00667 µM (active); in the experiment with SNB-75 it was < 0.000355 µM (active); with A498 it was < 0.000355 µM (active); in the experiment on UACC-62, < 0.000355 µM (active); in the experiment with DLD-1 it was 0.0607 µM (active). The GI50 in the experiment on COLO 205 is 0.00532 µM (active); in the experiment on HOP-92 it was < 0.000355 µM (active); in the experiment on SF-295, < 0.000355 µM (active); in the experiment on CAKI-1 it was 0.0119 µM (active); in the experiment on UO-31, 0.0254 µM (active); in the experiment with UACC-257, 0.00524 µM (active). The GI50 in the experiment with IGROV-1 was 0.00262 µM (active); in the experiment with OVCAR-8, 0.247 µM (active).
